In publication PMC12973313 (Chemical Science, 2026):
Like-named read-outs stand apart in the source and are kept apart here.

How the values were obtained:
[1] = design: method as in PMID 29633393; conditions: DMSO-d6 1% DCM, 112 mM, 298 K; proportion NMR silent; cited from earlier work
[2] = Metabolic stability in liver microsomes; format: in vitro ADME, mouse
Procedure: Following this, the metabolic stability of 9 was determined against mouse, rat, and human liver microsomes. […] Within this assay the stability of the intact parent compound is monitored with respect to time, during incubation at 37 °C in the presence and absence of the co-factor NADPH – required for cytochrome p450 activity.
Metabolic Stability in Rat, Mouse and Human Liver Microsomes:
The metabolic stability of compounds at a concentration of 1 µM, in rat, mouse and human liver microsomes (BD Gentest, Franklin Lakes NJ) was measured following incubation with […]
(NADPH) at 37 °C. Aliquots of each incubation were removed at 0.5, 5, 15, 30 and 60 minutes. The reaction was stopped by the addition of cold acetonitrile containing analytical […]
Samples were then centrifuged at 3,220 g for 40 minutes. The supernatant was aliquoted and added to ultra-pure H2O in a 1:1 ratio in preparation for LC-MS/MS analysis.
Incubations were conducted in duplicate; control incubations (substituting PBS for NADPH) were conducted simultaneously.
Samples were analysed using a Shimadzu Shimadzu Nexera LC Binary Gradient LC-30AD (Shimadzu Inc, Kyoto), coupled to a Sciex 5500 mass spectrometer (AB Inc., Illinois) for rat and mouse microsomes and a Sciex 6500+ for human microsomes. Separation achieved using an XSelect HSS T3 column (2.5µm, 50 x 2.1 mm) (Waters Ltd., Wilmslow) at a temperature of 40°C and a binary mobile phase gradient at a flow rate of 0.7 mL/min. Initial […]
(0.1% formic acid in acetonitrile).
0.5 minutes and then immediately returned to initial conditions. Sample analysis was by electrospray ionisation combined with multiple reaction monitoring in positive ion mode.
(§1) The ionspray voltage was 5500V.
Bi-directional Permeability in Caco-2 Cell Line: […]

[3] = Bi-directional permeability in Caco-2 cell line; format: in vitro ADME; conditions: human; for recovery at 2 h, 5 µM: Caco-2, pH 7.4, after 2 hours
Text: (§2) Next, to gauge the suitability of SSAs for oral dosing, 9 was subjected to a Caco-2 permeability assay which is used to both predict human intestinal permeability and investigate drug efflux, predicting in vivo compound absorption. This assay allows assessment of a compound's ability to undergo transport from the apical to the basolateral (A–B) compartments of the cell monolayer and vice versa (B–A). […] This is likely to result in poor absorption when dosed orally and therefore further development would be necessary for these agents to become suitable for oral administration. […]
as §1
(§3) Bi-directional Permeability in Caco-2 Cell Line:
(§4) The bi-directional permeability in Caco-2 cell lines was determined by seeding cells onto an HTS Transwell plate. Cells were cultivated for 14-18 days in a cell culture incubator at 37°C, 5% CO2, 95% relative humidity. Cell culture medium was replaced every other day. To assess monolayer integrity the transepithelial electrical resistance (TEER) across the monolayer was measured using Millicell Epithelial volt-ohm meter prior to assay and Lucifer yellow (LY) fluorescence measurement post-assay.
(§5) Test compound was prepared in DMSO and diluted in Hank’s Balanced Saline Solution (HBSS, pH 7.4) to a final concentration of 5 µM. Compound was added to the donor compartment of the transwell plate for both apical to basolateral (A>B) and basolateral to apical (B>A) measurements, with blank HBSS being added to the receiver compartment. The transwell plate was then incubated at 37°C, 5% CO2 for 2 hours.
(§6) Samples were taken at T=0 and T=2 hours determine the concentration of initial donor sample, and the concentration of receiver and donor wells post-incubation, respectively.
(§7) The samples were quenched with solvent containing internal standard (IS). The supernatant was mixed with an appropriate volume of ultra-pure water before LC-MS/MS analysis.
(§8) Samples were analysed using a Shimadzu Nexera LC Binary Gradient LC-30AD (Shimadzu Inc, Kyoto), coupled to a Sciex 6500+ (AB Inc., Illinois). Separation of compounds was achieved using a HALO 90Å biphenyl (2.7µm,2.1x50mm) (Advanced Materials Technology, Wilmington) column at a temperature of 40°C. A binary mobile phase gradient at a flow rate of 0.7 mL/min was used. Initial LC conditions comprised of 95% solvent A (0.1% formic acid in water) and 5% solvent B (0.1% formic acid in acetonitrile). This was ramped to 95% solvent B at 0.7 minutes, held for 0.5 minutes and then immediately returned to initial conditions. Sample analysis was by electrospray ionisation combined with multiple reaction monitoring in positive ion mode. The ion spray voltage was 5500V.
(§9) In vitro Absorption, Distribution and Metabolism results
(§10) Table S1 – Result from solubility assays performed in PBS pH 7.4 for SSA 9.
(§11) Table S2 – Summary of results from Caco-2 permeability assays for SSA 9. Papp is given as […]
(§12) cm/s. A = apical; B = basolateral. Recovery = % SSA recovered from the assay after 2 hours.
(§13) ID Papp (A-B) % Recovery Papp (B-A) % Recovery Efflux Ratio
(§14) Table S3 – Summary of results from human plasma protein binding assays for SSA 9. % Bound = % of SSA bound to the plasma proteins after 6 hours incubation at 37 °C. Low % […]
(§15) = > 99 %. % Recovery = % SSA recovered from the assay after 6 hours.
(§16) ID % Bound % Recovery % Stability
(§17) Table S4 – Summary of results from mouse, rat and human microsomal stability assays for SSA 9. The in vitro half-life (t1/2) and microsomal intrinsic clearance (CLint) were calculated from the elimination rate (k, the slope of the natural log of concentration verses time curve), assuming first order kinetics, using the formulae t1/2 = 0.693/-k and CLint = 0.693/t1/2 […]. This compound would be classed as a low clearance compound in all three species. […]

Caco-2 cell monolayer = experiment: Bi-directional permeability in Caco-2 cell line; format: in vitro ADME
Text: as §2, §1, §3, §4, §5, §6, §7, §8, §9, §10, §11, §12, §13, §14, §15, §16, §17

## O=C(O)CNC(=O)Nc1ccc(C(F)(F)F)cc1 [SSA 1]
[1]
  Q NMR (%) SSA anion: 0 (ref. [30]) %
  Q NMR (%) SSA cation: 0 (ref. [30]) %

## O=C(Nc1ccc(C(F)(F)F)cc1)N[C@H](Cc1ccccc1)C(=O)O [SSA 9]
[2]; liver microsomes, mouse microsomes
  microsomal CLint at 1 µM: < 7.5 µL/min/mg
[2]; mouse
  Hepatic Extraction Ratio (ER): < 0.26
  Predicted Hepatic CLH: < 23.07 mL/min/kg
[2]; mouse, 1 µM, 0.5 mg protein/mL
  In vitro t1/2: > 3.0797 h
[2]; mouse, +Cofactors
  Remaining percentage (%) 0.5 min: 100.00%
  Remaining percentage (%) 5 min: 101.43%
  Remaining percentage (%) 15 min: 97.80%
  Remaining percentage (%) 30 min: 99.51%
  Remaining percentage (%) 60 min: 99.55%
[2]; mouse, -Cofactors
  Remaining percentage (%) 0.5 min: 100.00%
  Remaining percentage (%) 60 min: 101.52%
[2]; mouse, liver microsomes, mouse, 1 µM, 0.5 mg protein/mL, read-out: In vitro t1/2
  half-life at 1 µM: > 3.08 h
[2]; mouse, liver microsomes, read-out: Scale-up CLint
  CLint scaled at 1 µM: < 31 mL/min/kg
[3]; Caco-2, pH 7.4, 5 µM, 2 hours, basolateral to apical
  Papp B→A at 2 h, 5 µM: 16.8 ×10⁻⁶ cm/s
[3]; Caco-2, pH 7.4, Caco-2
  efflux ratio at 2 h, 5 µM: 96.9
[3]; read-out: Recovery (%) AP-BL
  recovery at 2 h, 5 µM: 111%
[3]; read-out: Recovery (%) BL-AP
  recovery at 2 h, 5 µM: 97.7%
[3]; Caco-2, pH 7.4, 5 µM, 2 hours, apical to basolateral
  Papp A→B at 2 h, 5 µM: 0.17 ×10⁻⁶ cm/s
Caco-2 cell monolayer; 5 µM, 2 hours, basolateral to apical
  Papp (B-A): 16.76 10-6 cm/s
Caco-2 cell monolayer; Caco-2
  Efflux Ratio: 96.91
Caco-2 cell monolayer; after 2 hours
  Recovery (%) AP-BL: 110.78%
  Recovery (%) BL-AP: 97.74%
